According to publication PMC4240011 (Drug delivery and translational research, 2014):

Columns and labels:
[1] = Equilibrium solubility in SMEDDS formulation; assay type: physicochemical; conditions: in SMEDDS (Cremophor EL, Carbitol, Captex 355); room temperature overnight
[2] = tested on: UGT (curcumin glucuronidation, mouse liver microsomes); assay: Inhibition of curcumin glucuronidation in mouse liver microsomes; assay type: biochemical; conditions: inhibitor up to 10 μM, curcumin 1 μM
[3] = cited from earlier work
[4] = cited from earlier work; remark: listed apart in the source
[5] = Oral pharmacokinetic studies in mice; assay type: in vivo, mouse; conditions: silibinin 100 mg/kg with curcumin 100 mg/kg in SMEDDS

| Solubility [1] [mg/g] | SMILES | effect on curcumin glucuronidation / UGT activity (in words) [2] | also measured |
| --- | --- | --- | --- |
| 45.2 | O=C(/C=C/C=C/c1ccc2c(c1)OCO2)N1CCCCC1 [Piperine, piperine] | no inhibitory effect | – |
| – | O=C(O[C@@H]1Cc2c(O)cc(O)cc2O[C@@H]1c1cc(O)c(O)c(O)c1)c1cc(O)c(O)c(O)c1 [EGCG, epigallocatechin gallate] | slightly increased UGT activity | – |
| – | O=C(O)c1ccccc1O [salicylic acid] | slightly increased UGT activity | – |
| 51.5 | COc1cc(/C=C/C(=O)CC(=O)/C=C/c2ccc(O)c(OC)c2)ccc1O [Curcumin] | – | solubility in water [3]: ~ 2 ng/mL; bioavailability [4]: < 2% |
| 32.8 | COc1cc(C2Oc3cc([C@H]4Oc5cc(O)cc(O)c5C(=O)[C@@H]4O)ccc3OC2CO)ccc1O (stereo partly shown) [Silibinin, silibinin] | – | time of peak silibinin plasma concentration [5]: 30 min |
| 34.4 | O=c1c(O)c(-c2ccc(O)c(O)c2)oc2cc(O)cc(O)c12 [Quercetin, quercetin] | – | – |
